Assay type in all cases: functional, organism-based
The subject of test [1] is Hepatitis B virus. Nature of the test: In vivo antiviral activity against HBV infected in male C57BL/6NCrl mouse assessed as reduction in HBV-DNA level at 0.026 g/Kg, IG measured after 8 weeks by ELISA.
The test system of test [2] is Hepatitis B virus. Nature of the test: In vivo antiviral activity against HBV infected in male C57BL/6NCrl mouse assessed as reduction in HBsAg level at 0.026 g/Kg, IG measured after 8 weeks by ELISA.
Test [3] relates to Hepatitis B virus. Nature of the test: In vivo antiviral activity against HBV infected in male C57BL/6NCrl mouse assessed as reduction in HBeAg level at 0.026 g/Kg, IG measured after 8 weeks by ELISA.
The test system of test [4] is Mus musculus. Briefly: Reversal of arachidonic acid level in HBV infected male C57BL/6NCrl mouse serum at 0.026 mg/kg, IG by UPLC-Q/TOF-MS analysis.
Test [5] has as its system Mus musculus. Briefly: Reversal of citric acid level in HBV infected male C57BL/6NCrl mouse serum at 0.026 mg/kg, IG by UPLC-Q/TOF-MS analysis.
Test [6] deals with Mus musculus. Nature of the test: Reversal of phenylalanine level in HBV infected male C57BL/6NCrl mouse serum at 0.026 mg/kg, IG by UPLC-Q/TOF-MS analysis.
Test [7] has as its system Mus musculus. Briefly: Reversal of tyrosine in HBV infected male C57BL/6NCrl mouse serum at 0.026 mg/kg, IG by UPLC-Q/TOF-MS analysis.
The subject of test [8] is Hepatitis B virus. Briefly: In vivo antiviral activity against HBV infected in male C57BL/6NCrl mouse assessed as reduction in HBV-DNA level at 6 mg/kg administered via tail vein measured after 8 weeks by ELISA.
For test [9], the system named is Hepatitis B virus. Briefly: In vivo antiviral activity against HBV infected in male C57BL/6NCrl mouse assessed as reduction in HBsAg level at 6 mg/kg administered via tail vein measured after 8 weeks by ELISA.
The test system of test [10] is Hepatitis B virus. Nature of the test: In vivo antiviral activity against HBV infected in male C57BL/6NCrl mouse assessed as reduction in HBeAg level at 6 mg/kg administered via tail vein measured after 8 weeks by ELISA.
In test [11] the test system is Hepatitis B virus. Briefly: In vivo antiviral activity against HBV infected in male C57BL/6NCrl mouse assessed as reduction in HBV-DNA level at 3 mg/kg administered via tail vein measured after 8 weeks by ELISA.
Test [12] deals with Hepatitis B virus. Briefly: In vivo antiviral activity against HBV infected in male C57BL/6NCrl mouse assessed as reduction in HBV-DNA level at 1.5 mg/kg administered via tail vein measured after 8 weeks by ELISA.
For test [13], the system named is Hepatitis B virus. Briefly: In vivo antiviral activity against HBV infected in male C57BL/6NCrl mouse assessed as reduction in HBsAg level at 3 mg/kg administered via tail vein measured after 8 weeks by ELISA.
The subject of test [14] is Hepatitis B virus. Briefly: In vivo antiviral activity against HBV infected in male C57BL/6NCrl mouse assessed as reduction in HBsAg level at 1.5 mg/kg administered via tail vein measured after 8 weeks by ELISA.
The test system of test [15] is Hepatitis B virus. Nature of the test: In vivo antiviral activity against HBV infected in male C57BL/6NCrl mouse assessed as reduction in HBeAg level at 3 mg/kg administered via tail vein measured after 8 weeks by ELISA.
Test [16] relates to Hepatitis B virus. Nature of the test: In vivo antiviral activity against HBV infected in male C57BL/6NCrl mouse assessed as reduction in HBeAg level at 1.5 mg/kg administered via tail vein measured after 8 weeks by ELISA.
The test system of test [17] is Hepatitis B virus. Nature of the test: In vivo antiviral activity against HBV infected in male C57BL/6NCrl mouse assessed as reduction in HBV-DNA level administered via tail vein measured after 8 weeks by ELISA. The following applies: dose 1.5-6 mg/kg.
Test [18] has as its system Mus musculus. Nature of the test: Reduction in taurocholic acid in HBV infected male C57BL/6NCrl mouse serum at 50 to 150 mg/kg, administered via tail vein by UPLC-Q/TOF-MS analysis. The following applies: dose 50-150 mg/kg.
Test [19] deals with Mus musculus. Nature of the test: Reversal of phenylalanine level in HBV infected male C57BL/6NCrl mouse serum at 50 to 150 mg/kg, administered via tail vein by UPLC-Q/TOF-MS analysis. The settings on record: dose 50-150 mg/kg.
For test [20], the system named is Mus musculus. Briefly: Reversal of tyrosine in HBV infected male C57BL/6NCrl mouse serum at 50 to 150 mg/kg, administered via tail vein by UPLC-Q/TOF-MS analysis. The settings on record: dose 50-150 mg/kg.
Test [21] has as its system Mus musculus. Briefly: Reversal of citric acid level in HBV infected male C57BL/6NCrl mouse serum at 50 to 150 mg/kg, administered via tail vein by UPLC-Q/TOF-MS analysis. The settings on record: dose 50-150 mg/kg.
Test [22] deals with Mus musculus. Briefly: Reversal of arachidonic acid level in HBV infected male C57BL/6NCrl mouse serum at 50 to 150 mg/kg, administered via tail vein by UPLC-Q/TOF-MS analysis. The settings on record: dose 50-150 mg/kg.
For test [23], the system named is Hepatitis B virus. Nature of the test: In vivo antiviral activity against HBV infected in male C57BL/6NCrl mouse assessed as reduction in HBV-DNA level at 0.065 mg/kg, IG measured after 8 weeks by ELISA.
For test [24], the system named is Hepatitis B virus. Briefly: In vivo antiviral activity against HBV infected in male C57BL/6NCrl mouse assessed as reduction in HBsAg level at 0.065 mg/kg, IG measured after 8 weeks by ELISA.
The subject of test [25] is Hepatitis B virus. Briefly: In vivo antiviral activity against HBV infected in male C57BL/6NCrl mouse assessed as reduction in HBeAg level at 0.065 mg/kg, IG measured after 8 weeks by ELISA.

The source made the active and inactive calls. No cut-off for these calls is given here.

This note sets out measurements from ChEMBL document CHEMBL6109092, “Anti-HBV activity of (R)-gentiandiol, a metabolite of Swertiamarin, in transgenic mice: Insights from non-targeted serum metabolomics” (Bioorg Med Chem, 2025).

As to `C=C[C@H]1[C@H](O[C@@H]2O[C@H](CO)[C@@H](O)[C@H](O)[C@H]2O)OC=C2C(=O)OCC[C@]21O`, the outcome in the test on Hepatitis B virus [1], with Hepatitis B virus [2], in the test on Hepatitis B virus [3], in the test with Mus musculus [4], with Mus musculus [5] and in the test on Mus musculus [6] was Active. For the same molecule, the result in the test on Mus musculus [7] was Active.

As for `O=C1OCCc2c1cncc2[C@H](O)CO`, the result with Hepatitis B virus [8], in the test on Hepatitis B virus [9] and with Hepatitis B virus [10] was inactive.

For the molecule `O=C1OCCc2c1cncc2[C@@H](O)CO`, the result in the test on Hepatitis B virus [8], in the test on Hepatitis B virus [11], with Hepatitis B virus [12], in the test with Hepatitis B virus [9], in the test on Hepatitis B virus [13] and in the test on Hepatitis B virus [14] was Active. Besides, the result with Hepatitis B virus [10], with Hepatitis B virus [15], in the test with Hepatitis B virus [16], in the test on Mus musculus [18], in the test with Mus musculus [19] and in the test on Mus musculus [20] was Active. In addition, the result in the test with Mus musculus [21] and in the test on Mus musculus [22] was Active. Further, in the test on Hepatitis B virus [17], the Activity result was “Dose-dependent-effect”.

For `C=C1[C@H](CO)[C@@H](O)C[C@@H]1n1cnc2c(=O)[nH]c(N)nc21`, the result in the test on Hepatitis B virus [23], in the test with Hepatitis B virus [24] and in the test with Hepatitis B virus [25] was Active.
